Test system: form-deprivation myopia of guinea pigs
Experiment: Monocular form-deprivation myopia in guinea pigs, sub-conjunctival injection
Type: in vivo, guinea pig
Details: form-deprivation eyes, 1 μM and 100 μM sub-conjunctival injection daily, after 4 weeks, vs vehicle control group
Procedure: Experimental animals were 3 weeks old, UK variety, three-color and short-haired guinea pigs. Monocular form-deprivation (FD) was performed by using a facemask, and the form-deprivation eyes were treated with adenylyl cyclase inhibitor (ACI) SQ22536 at different concentrations (for example, 1 μM and 100 μM) by sub-conjunctival injection, so as to differently decrease intraocular cAMP levels. Animals were divided into 4 groups randomly: form-deprivation control group (FD+non-injection), form-deprivation+vehicle control group (FD+vehicle) (vehicle here refers to 0.9% saline), form-deprivation+drug groups (FD+1 μM SQ22536 group and FD+100 μM SQ22536 group). Drugs were sub-conjunctivally injected at 9:00 am every day for 4 weeks. The contralateral eyes were not treated. Refraction were measured with an infrared eccentric refractometer (EIR). Corneal curvature radii were measured with a keratometer. Eye axis parameters, such as vitreous chamber depths and axial lengths, were measured with an A-scan ultrasonograph (11 MHz), respectively, before experiment, 2 weeks after treatment, and 4 weeks after treatment.

Nc1ncnc2c1ncn2C1CCCO1 (stereo not drawn) [SQ22536, 9-(Tetrahydro-2-furanyl)-9H-purin-6-amine]
myopic refractive error (refraction difference between experimental eye and contralateral eye) (time- and concentration-dependent effect (FIG. 1)): less than that of the vehicle control group | vitreous chamber elongation (vitreous chamber depth difference between experimental eye and contralateral eye) (time- and concentration-dependent effect (FIG. 2)): significantly less than that of the vehicle control group | axial elongation (axial length difference between experimental eye and contralateral eye) (time- and concentration-dependent effect (FIG. 3)): significantly less than that of the vehicle control group

Reference: patent US9084791B2, “Method of inhibiting myopia and application of an adenylyl cyclase inhibitor as a drug for inhibiting myopia” (SCHOOL OF OPHTHALMOLOGY AND OPTOMETRY, WENZHOU MEDICAL …, priority 2010, dated 2015)
